3 substances from patent publication US20240174744A1, “METHODS OF TREATMENT USING PROTEIN BINDERS TO IRHOM2 EPITOPES” (SCIRHOM GMBH, priority 2021, published 2024) can be followed below.

The test system of the test is DSS-induced colitis (IBD). The experiment in a line: DSS-induced colitis (IBD) model in humanized NCG mice. The note with it: 25 mg/kg i.p. every two days, 8 mice per group. It is filed as in vivo, mouse. As for the experimental part:
In the following study, an in vivo model was performed to verify the inhibitory effects of the antibodies of the present disclosure on DSS-induced colitis (IBD) in a mouse model for acute IBD. The experiment was carried out with female NOD/Shi-scid/IL-2Rγ null immunodeficient mouse strain (NCG). Mice were humanized using hematopoietic stem cells (CD34+) isolated from human cord blood following TransCure bioServices's proprietary humanization protocol. Only mice with a humanization rate (hCD45/total CD45) above 25% were used.
On day 1, mice were randomized based on the humanization rate and cord blood donors, acute colitis was induced by adding 3% of DSS (Sigma Aldrich, France) in drinking water (MilliQ water provided ad libitum) during […] from D1 to D7 and renewed every 2 days (only for groups #2, #3, #4, #5 and #6). For the recovery period, after the DSS cycle, the DSS solution was removed and replaced by MilliQ water (washout period) during 5 days from day 8 to day 12. […]
Endoscopy score was determined at D5 and D10. […] The endoscope was rectally inserted, and photographs of the endoscopic procedure were recorded. […]
Colon damages were evaluated during the endoscopy using TransCure bioServices's murine endoscopic index of colitis severity (MEICS) that consists of colon thickening, changes of vascular pattern, visible fibrin, granularity of mucosal surface and stool consistency as scoring parameters. […]
All mice were clinically monitored during the whole study for unexpected signs of distress, changes in body weight and evolution of disease severity. These parameters were recorded daily and each mouse was assigned a global IBD score, consisting of body weight, diarrhea & stool consistency and bleeding. The latter two were assessed by visually monitoring stool and mouse hairs around the anus and tail. Moreover, the mortality was also recorded.
“Tocilizumab: Tocilizumab (Roche, Switzerland), comparator group #4”: the “mice that survived the complete study period” value is listed as “one out of 8”.

On to Adalimumab, for which the “mice that survived the complete study period” value is “two out of 8”.

For “Infliximab: Infliximab (Merck Sharp & Dohme, USA), comparator group #3”, the “mice that survived the complete study period” value is “two out of 8”.
